Values quoted from earlier work, collected in patent US20110030103A1, “LIPOPEPTIDES AND LIPOPEPTIDE SYNTHETASES” (priority 2007, published 2011).
*1 amine or outer side, *2 acyl side, *3 side chain or, on linkers, in order; H or OH if unused. Where a SMILES comes first, the peptide text is derived from it. Bridges are numbered along the chain shown (N, C = ends). [ ]: non-standard residue; d: D form. X1 = CC(C)CCCCCCCCC[C@H](CC(=O)[*:1])O[*:2]

Tested on: bacteria, including both Gram-negative and Gram-positive bacteria
Details: minimal antibacterial effects; background statement

CC(C)CCCCCCCCC[C@@H]1CC(=O)N[C@@H](CCC(=O)O)C(=O)N[C@@H](CC(C)C)C(=O)N[C@H](CC(C)C)C(=O)N[C@@H](C(C)C)C(=O)N[C@@H](CC(=O)O)C(=O)N[C@H](CC(C)C)C(=O)N[C@@H](CC(C)C)C(=O)O1 [surfactin] (EL[dL]VD[dL]L; linker N-C via X1)
minimum inhibitory concentration (MIC): 12 to 50 µg/mL
